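These data come from cells grown in 96-well plates and exposed to compound for 48 hours at five concentrations. At the GI50, growth is halved. TGI: concentration producing complete growth inhibition.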
Key:
Experiment in all cases: NCI-60 cell line screen, 48 h
786-0 renal = tested on: 786-0 renal
A498 renal = tested on: A498 renal
A549 NSCLC = tested on: A549 NSCLC
ACHN renal = tested on: ACHN renal
BT-549 breast = tested on: BT-549 breast
CAKI-1 renal = tested on: CAKI-1 renal
COLO 205 colon = tested on: COLO 205 colon
DU-145 prostate = tested on: DU-145 prostate
EKVX NSCLC = tested on: EKVX NSCLC
HCT-116 colon = tested on: HCT-116 colon
HCT-15 colon = tested on: HCT-15 colon
HL-60(TB) leukemia = tested on: HL-60(TB) leukemia
HOP-62 NSCLC = tested on: HOP-62 NSCLC
HOP-92 NSCLC = tested on: HOP-92 NSCLC
HS 578T breast = tested on: HS 578T breast
HT29 colon = tested on: HT29 colon
IGROV1 ovarian = tested on: IGROV1 ovarian
K-562 leukemia = tested on: K-562 leukemia
KM12 colon = tested on: KM12 colon
LOX IMVI melanoma = tested on: LOX IMVI melanoma
M14 melanoma = tested on: M14 melanoma
MCF7 breast = tested on: MCF7 breast
MDA-MB-231 breast = tested on: MDA-MB-231 breast
MDA-MB-435 = tested on: MDA-MB-435
MOLT-4 leukemia = tested on: MOLT-4 leukemia
NCI-H226 lung = tested on: NCI-H226 lung
NCI-H23 lung = tested on: NCI-H23 lung
NCI-H460 lung = tested on: NCI-H460 lung
NCI-H522 lung = tested on: NCI-H522 lung
NCI/ADR-RES ovarian = tested on: NCI/ADR-RES ovarian
OVCAR-3 ovarian = tested on: OVCAR-3 ovarian
OVCAR-4 ovarian = tested on: OVCAR-4 ovarian
OVCAR-5 ovarian = tested on: OVCAR-5 ovarian
OVCAR-8 ovarian = tested on: OVCAR-8 ovarian
PC-3 prostate = tested on: PC-3 prostate
RPMI-8226 leukemia = tested on: RPMI-8226 leukemia
RXF 393 renal = tested on: RXF 393 renal
SF-268 CNS = tested on: SF-268 CNS
SF-295 CNS = tested on: SF-295 CNS
SF-539 CNS = tested on: SF-539 CNS
SK-MEL-2 melanoma = tested on: SK-MEL-2 melanoma
SK-MEL-28 melanoma = tested on: SK-MEL-28 melanoma
SK-MEL-5 melanoma = tested on: SK-MEL-5 melanoma
SK-OV-3 ovarian = tested on: SK-OV-3 ovarian
SN12C renal = tested on: SN12C renal
SNB-19 CNS = tested on: SNB-19 CNS
SNB-75 CNS = tested on: SNB-75 CNS
SW-620 colon = tested on: SW-620 colon
T-47D breast = tested on: T-47D breast
U251 CNS = tested on: U251 CNS
UACC-257 melanoma = tested on: UACC-257 melanoma
UACC-62 melanoma = tested on: UACC-62 melanoma
UO-31 renal = tested on: UO-31 renal

Structure (SMILES): COC(=O)c1ccc(NC(=O)c2ccc(NC3=C(Cl)C(=O)N(Cc4ccccc4)C3=O)cc2)cc1
- GI50 (786-0 renal): 10.9 µM
- TGI (786-0 renal): 22.9 µM
- GI50 (A498 renal): 28.4 µM
- TGI (A498 renal): 58.6 µM
- GI50 (A549 NSCLC): 15.8 µM
- TGI (A549 NSCLC): 29.2 µM
- GI50 (ACHN renal): 17.2 µM
- TGI (ACHN renal): 31 µM
- GI50 (BT-549 breast): 16.4 µM
- TGI (BT-549 breast): 32.1 µM
- GI50 (CAKI-1 renal): 2490 nM
- TGI (CAKI-1 renal): 6.4 µM
- GI50 (COLO 205 colon): 37 µM
- TGI (COLO 205 colon): > 100 µM
- GI50 (DU-145 prostate): 17.4 µM
- TGI (DU-145 prostate): 31.2 µM
- GI50 (EKVX NSCLC): 45.4 µM
- TGI (EKVX NSCLC): > 100 µM
- GI50 (HCT-116 colon): 3.47 µM
- TGI (HCT-116 colon): 11.8 µM
- GI50 (HCT-15 colon): 14.6 µM
- TGI (HCT-15 colon): 27.7 µM
- GI50 (HL-60(TB) leukemia): 12.8 µM
- TGI (HL-60(TB) leukemia): 25.4 µM
- GI50 (HOP-62 NSCLC): 11.1 µM
- TGI (HOP-62 NSCLC): 23.1 µM
- GI50 (HOP-92 NSCLC): 12.8 µM
- TGI (HOP-92 NSCLC): 25.4 µM
- GI50 (HS 578T breast): 35.9 µM
- TGI (HS 578T breast): > 100 µM
- GI50 (HT29 colon): 22.5 µM
- TGI (HT29 colon): 51.2 µM
- GI50 (IGROV1 ovarian): 1530 nM
- TGI (IGROV1 ovarian): 11.2 µM
- GI50 (K-562 leukemia): 19 µM
- TGI (K-562 leukemia): > 100 µM
- GI50 (KM12 colon): 25.7 µM
- TGI (KM12 colon): > 100 µM
- GI50 (LOX IMVI melanoma): 13.3 µM
- TGI (LOX IMVI melanoma): 26 µM
- GI50 (M14 melanoma): 17.1 µM
- TGI (M14 melanoma): 30.8 µM
- GI50 (MCF7 breast): 7.16 µM
- TGI (MCF7 breast): 41.3 µM
- GI50 (MDA-MB-231 breast): 19.7 µM
- TGI (MDA-MB-231 breast): 34.7 µM
- GI50 (MDA-MB-435): 12.3 µM
- TGI (MDA-MB-435): 27 µM
- GI50 (MOLT-4 leukemia): 13 µM
- TGI (MOLT-4 leukemia): 25.6 µM
- GI50 (NCI-H226 lung): 22 µM
- TGI (NCI-H226 lung): 40.6 µM
- GI50 (NCI-H23 lung): 12.1 µM
- TGI (NCI-H23 lung): 24.4 µM
- GI50 (NCI-H460 lung): 27.3 µM
- TGI (NCI-H460 lung): > 100 µM
- GI50 (NCI-H522 lung): 13.1 µM
- TGI (NCI-H522 lung): 33.1 µM
- GI50 (NCI/ADR-RES ovarian): 14 µM
- TGI (NCI/ADR-RES ovarian): 27 µM
- GI50 (OVCAR-3 ovarian): 14 µM
- TGI (OVCAR-3 ovarian): 26.9 µM
- GI50 (OVCAR-4 ovarian): 27 µM
- TGI (OVCAR-4 ovarian): 60.9 µM
- GI50 (OVCAR-5 ovarian): 21.5 µM
- TGI (OVCAR-5 ovarian): 39 µM
- GI50 (OVCAR-8 ovarian): 11 µM
- TGI (OVCAR-8 ovarian): 24.7 µM
- GI50 (PC-3 prostate): 13.7 µM
- TGI (PC-3 prostate): 26.6 µM
- GI50 (RPMI-8226 leukemia): 3.74 µM
- TGI (RPMI-8226 leukemia): 16.3 µM
- GI50 (RXF 393 renal): 22.9 µM
- TGI (RXF 393 renal): 48.3 µM
- GI50 (SF-268 CNS): 22.2 µM
- TGI (SF-268 CNS): 59 µM
- GI50 (SF-295 CNS): 10.2 µM
- TGI (SF-295 CNS): 22 µM
- GI50 (SF-539 CNS): 20.7 µM
- TGI (SF-539 CNS): 39.4 µM
- GI50 (SK-MEL-2 melanoma): 17.3 µM
- TGI (SK-MEL-2 melanoma): 42.2 µM
- GI50 (SK-MEL-28 melanoma): 23.6 µM
- TGI (SK-MEL-28 melanoma): 47.3 µM
- GI50 (SK-MEL-5 melanoma): 34.7 µM
- TGI (SK-MEL-5 melanoma): > 100 µM
- GI50 (SK-OV-3 ovarian): 20.7 µM
- TGI (SK-OV-3 ovarian): 38.3 µM
- GI50 (SN12C renal): 8.13 µM
- TGI (SN12C renal): 21.7 µM
- GI50 (SNB-19 CNS): 16.5 µM
- TGI (SNB-19 CNS): 30.4 µM
- GI50 (SNB-75 CNS): 28.8 µM
- TGI (SNB-75 CNS): 64.4 µM
- GI50 (SW-620 colon): 15.1 µM
- TGI (SW-620 colon): 33 µM
- GI50 (T-47D breast): 74.1 µM
- TGI (T-47D breast): > 100 µM
- GI50 (U251 CNS): 9.63 µM
- TGI (U251 CNS): 21.4 µM
- GI50 (UACC-257 melanoma): 27.3 µM
- TGI (UACC-257 melanoma): 76.5 µM
- GI50 (UACC-62 melanoma): 18.7 µM
- TGI (UACC-62 melanoma): 37.1 µM
- GI50 (UO-31 renal): 17.9 µM
- TGI (UO-31 renal): 31.7 µM
